Reference: PubChem BioAssay AID214 (DTP/NCI, 2004)
Values joined by “and” are separate entries in the source; they are usually repeats but may differ in a detail not shown here. Equal entries are not always repeated. Records with an inconclusive call do not appear.

System: B6C3F1 mice, colon carcinoma 38 s.c., T/C
Assay: NCI In Vivo Anticancer Drug Screen. Data for tumor model Colon Carcinoma 38 (subcutaneous) in B6C3F1 mice
Details: endpoint: median tumor weight (est.), higher = larger tumour
Procedure: The antitumor activity of compounds was measured in mice bearing transplantable tumors. Survival or tumor size were measured and the results are expressed as the measurement made in the treated group (T) divided by the measurement made in the vehicle treated control group (C). The tumor model used in this assay is Colon Carcinoma 38 (subcutaneous) in B6C3F1 mice

[1] = dose: 50.0 mg/kg/injection, schedule: Q07DX002 (ip), vehicle: Klucel (hydroxypropylcellulose) (HPC)
[2] = dose: 200.0 mg/kg/injection, schedule: Q07DX002 (ip), vehicle: Klucel (hydroxypropylcellulose) (HPC)
[3] = dose: 400.0 mg/kg/injection, schedule: Q07DX002 (ip), vehicle: Klucel (hydroxypropylcellulose) (HPC)
[4] = dose: 100.0 mg/kg/injection, schedule: Q07DX002 (ip), vehicle: Klucel (hydroxypropylcellulose) (HPC)

For CCC(/C=C/C1OC(=O)C=CC1C)=C\C(C)C/C=C/C(C)=C/C(C)C(=O)C(C)C(O)C(C)C/C(C)=C/C(=O)O (stereo not given), the T/C (dose: 100.0 micrograms/kg/injection, schedule: Q07DX002 (ip), vehicle: other) was 56 % of control, the T/C (dose: 200.0 micrograms/kg/injection, schedule: Q07DX002 (ip), vehicle: other) was 105 % of control and the T/C (dose: 400.0 micrograms/kg/injection, schedule: Q07DX002 (ip), vehicle: other) was 85 % of control. For the same molecule, the T/C (dose: 800.0 micrograms/kg/injection, schedule: Q07DX002 (ip), vehicle: other) was 102 % of control and the T/C (dose: 1600.0 micrograms/kg/injection, schedule: Q07DX002 (ip), vehicle: other) was 98 % of control.
In the case of CS(=O)(=O)OCCCCOS(C)(=O)=O, the T/C (dose: 50.0 mg/kg/injection, schedule: Q01DX006 (ip), vehicle: saline with Tween-80) is reported as 16 % of control.
With COC(=O)NC1C(C)OC(OC2C/C=C(/C)C3C=CC4C(OC5CC(OC6CCC(OC7CC(O)C(OC8CCC(O)C(C)O8)C(C)O7)C(C)O6)C(OC(C)=O)C(C)O5)C(C)CC(C)C4C3(C)/C(O)=C3/C(=O)OC4(CC(C=O)=CC(O)C4/C=C\2C)C3=O)CC1(C)[N+](=O)[O-] (stereo not given) the T/C (dose: 2.5 mg/kg/injection, schedule: Q07DX002 (ip), vehicle: water) was 86 % of control, the T/C (dose: 5.0 mg/kg/injection, schedule: Q07DX002 (ip), vehicle: water) was 96 % of control and the T/C (dose: 10.0 mg/kg/injection, schedule: Q07DX002 (ip), vehicle: water) was 89 % of control. For the same molecule, the T/C (dose: 20.0 mg/kg/injection, schedule: Q07DX002 (ip), vehicle: water) was 82 % of control.
For NS(=O)(=O)OCCCCCCCOS(N)(=O)=O, the T/C (dose: 12.5 mg/kg/injection, schedule: Q07DX002 (ip), vehicle: saline with Tween-80) was 214 % of control, the T/C (dose: 25.0 mg/kg/injection, schedule: Q07DX002 (ip), vehicle: saline with Tween-80) was 270 % of control and the T/C (dose: 50.0 mg/kg/injection, schedule: Q07DX002 (ip), vehicle: saline with Tween-80) was 192 % of control. For the same molecule, the T/C (dose: 100.0 mg/kg/injection, schedule: Q07DX002 (ip), vehicle: saline with Tween-80) was 94 % of control and the T/C (dose: 200.0 mg/kg/injection, schedule: Q07DX002 (ip), vehicle: saline with Tween-80) was 104 % of control.
In the case of CCOC(=O)c1c[nH]c2oc(/C=N/N3CC(CN4CCOCC4)OC3=O)cc2c1=O (stereo not given), the T/C (dose: 150.0 mg/kg/injection, schedule: Q07DX002 (ip), vehicle: other) is reported as 83 % of control, the T/C (dose: 300.0 mg/kg/injection, schedule: Q07DX002 (ip), vehicle: other) is reported as 56 % of control and the T/C (dose: 600.0 mg/kg/injection, schedule: Q07DX002 (ip), vehicle: other) is reported as 29 % of control.
In the case of Cc1c(N)nc([C@H](CC(N)=O)NC[C@H](N)C(N)=O)nc1C(=O)N[C@H](C(=O)N[C@H](C)[C@@H](O)CC(=O)N[C@H](C(=O)NC(O[C@@H]1O[C@@H](C)[C@@H](N)[C@@H](O)[C@H]1O)C(O)c1nc(-c2nc(C(=O)NCCCCN)cs2)cs1)[C@@H](C)O)[C@@H](O[C@@H]1O[C@@H](CO)[C@@H](O)[C@H](O)[C@@H]1O[C@H]1O[C@H](CO)[C@@H](O)[C@H](OC(N)=O)[C@@H]1O)c1c[nH]cn1 (stereo not given in full), the T/C (dose: 4.0 mg/kg/injection, schedule: Q07DX002 (ip), vehicle: saline) is reported as 54 % of control, the T/C (dose: 8.0 mg/kg/injection, schedule: Q07DX002 (ip), vehicle: saline) is reported as 35 % of control and the T/C (dose: 16.0 mg/kg/injection, schedule: Q07DX002 (ip), vehicle: saline) is reported as 13 % of control. For the same molecule, the T/C (dose: 32.0 mg/kg/injection, schedule: Q07DX002 (ip), vehicle: saline) was 25 % of control and the T/C (dose: 64.0 mg/kg/injection, schedule: Q07DX002 (ip), vehicle: saline) was 9 % of control.
In the case of COC(=O)Nc1nc2ccc(SC)cc2c(=O)[nH]1, the T/C [1] is reported as 117 % of control, the T/C [2] is reported as 84 % of control and the T/C [3] is reported as 109 % of control.
With COc1nc(C(Cl)(Cl)Cl)c(Cl)c(OC)c1Cl the T/C [1] was 103 % of control, the T/C [4] was 109 % of control and the T/C [2] was 104 % of control. The T/C [3] was 47 % of control.
In the case of CCC(C(=O)O)C(=O)O.[NH2-].[NH2-].[Pt+2], the T/C (dose: 50.0 mg/kg/injection, schedule: Q07DX002 (ip), vehicle: suspension in saline) is reported as 61 % of control, the T/C (dose: 100.0 mg/kg/injection, schedule: Q07DX002 (ip), vehicle: suspension in saline) is reported as 45 % of control and the T/C (dose: 200.0 mg/kg/injection, schedule: Q07DX002 (ip), vehicle: saline) is reported as 62 % of control.
With CC(CN1CC(=O)NC(=O)C1)N1CC(=O)NC(=O)C1 (stereo not given) the T/C [4] was 82 % of control, the T/C [2] was 40 % of control and the T/C [3] was 2 % of control. The T/C (dose: 800.0 mg/kg/injection, schedule: Q07DX002 (ip), vehicle: Klucel (hydroxypropylcellulose) (HPC)) was 1 % of control.
In the case of Cc1cc(Nc2ccc3c(c2)OCO3)c2cc3c(cc2n1)OCO3, the T/C [1] is reported as 78 % of control and 103 % of control and the T/C [4] is reported as 96 % of control and 113 % of control and 115 % of control.
With COc1cccc(-c2cc(=O)c3cccc(CC(=O)O)c3o2)c1 the T/C (dose: 100.0 mg/kg/injection, schedule: Q07DX002 (ip), vehicle: saline) was 3 % of control.
